Earlier results on one molecule are cited in patent publication US20220370511A1, “METHODS AND COMPOSITIONS FOR ENHANCING OVERALL HEALTH AND LONGEVITY IN MAMMALS” (MYOS CORP., priority 2019, published 2022).

One data set concerns NAD+ metabolism. Particulars: chronic supplementation, healthy middle-aged and older adults.
The conditions of data set [1]: chronic supplementation, healthy middle-aged and older adults.
The conditions of data set [2]: dose of 300 mg/kg/day.

`NC(=O)c1ccc[n+]([C@@H]2O[C@H](CO)[C@@H](O)[C@H]2O)c1` [nicotinamide riboside]: the “stimulation of NAD+ metabolism” value with NAD+ metabolism is listed as “effectively stimulated”. For the same molecule, the tolerability entry in data set [1] is recorded as “well tolerated”. The “adverse effects related to nicotinamide riboside” value in data set [2] is recorded as “absent”.
